The text below walks through data of patent publication US20250179062A1, “CRYSTALLINE FORMS OF A PYRROLOPYRIDINE-ANILINE COMPOUND” (NFLECTION THERAPEUTICS, INC., priority 2021, published 2025).

Each structure is given as a SMILES string. Entries after “also recorded” stand apart in the source; their conditions may differ. Read-outs that look alike come from different tables or passages of the source.

Broadly, the solubility is the dissolved amount per volume that the medium holds.

Series [1] is described as follows: Approximate solubility, visually estimated by solvent aliquot addition. The series is classed as physicochemical. As to conditions: ambient temperature; for solubility: thermodynamic from solid. How it is done: A lot of the compound of formula (I) containing a mixture of Forms A and B was used for this study. Measured aliquots of a variety of solvents were added to weighed amounts of the material with sonication until the solution appeared clear or the maximum volume of the vial was reached. Solubility was calculated based on the total solvent used to give a solution. […] Values are rounded to the nearest whole number. […] If dissolution occurred as determined by the visual assessment after the addition of the first aliquot, the value is reported as “>”.

A short description of series [2]: Binary competitive interconversion slurry experiments. As to conditions: between room temperature and 50° C. The format is physicochemical. As for the experimental part: Alternatively, interconversion experiments were performed to determine the thermodynamic relationship between polymorphs. […] Clarendon Press, Oxford, 2006; and Polymorphism in Pharmaceutical Solids. Brittain, Harry G. ed. Marcek Dekker, Inc. New York. 1999]. […] The choice of solvent affects the kinetics of polymorph conversion and not the thermodynamic relationship between polymorphic forms [Gu, C H., Young, V. Jr., Grant, D J. J. Pharm. Sci. 2001, 90 (11): 1878-1890].
Slurries were prepared at ambient and 50° C. using binary mixtures of Forms A/F, A/E, and E/F. Saturated solutions of the compound of formula (I) were generated in EtOAc or ACN at RT or 50° C. The solutions were filtered and approximately equivalent quantities of two of the polymorphs were added to the solutions. The samples were slurried for several days at the given temperature and the solids were collected by positive pressure filtration, or centrifugation/decantation. The solids were harvested and analyzed by an XRPD.

The nature of series [3]: Dynamic vapor sorption (DVS). The series is classed as physicochemical. How it is done:
Automated vapor sorption (VS) data were collected on a Surface Measurement System DVS Intrinsic instrument. Samples were not dried prior to analysis. Sorption and desorption data were collected over a range from 5% to 95% RH at 10% RH increments under a nitrogen purge. The equilibrium criterion used for analysis was less than 0.0100% weight change in 5 minutes with a maximum equilibration time of 3 hours. Data were not corrected for the initial moisture content of the samples. Post-analysis sample was submitted for XRPD analysis.

The nature of series [4]: Physical stability of crystalline forms (XRPD after stress). The series is classed as physicochemical. As for the experimental part: Physical stability of Form A was investigated.
Physical stability of Form F was investigated.
Physical stability of Form B was investigated.
Physical stability of Form C was investigated.
Because the solids of Form H were originally isolated damp with excess MeOH (see Example 7), an attempt to remove the excess solvent under vacuum (i.e., room temperature for 2 days) was performed.

Test in series [5]: as above
The series is classed as physicochemical. Conditions: higher temperature (e.g., 178° C.).

For series [6] the following is noted: clinical trials, systemic MEK inhibitor; cited from earlier work.
The mark [7] stands for this setting: 90% RH at ambient temperature over 7 days.

For the compound `Cn1c(Nc2ccc(I)cc2F)c(C(=O)NOCCO)c2cccnc21` [Compound of Formula (I)], the solubility in series [1] (aqueous with cosolvent or surfactant or cyclodextrin, 1:1 THF/H2O (v/v) (aw = 1.04), lot containing mixture of Forms A and B, read-out: Solubility) is 11000 µg/mL; in series [1] (aqueous with cosolvent or surfactant or cyclodextrin, 3:1 acetone/H2O (v/v) (aw = 0.85), lot containing mixture of Forms A and B, read-out: Solubility), 5000 µg/mL; in series [1] (organic solvent or mixture, ACN, lot containing mixture of Forms A and B, read-out: Solubility), 2000 µg/mL; in series [1] (organic solvent or mixture, DCM, lot containing mixture of Forms A and B, read-out: Solubility), 6000 µg/mL; in series [1] (organic solvent or mixture, EtOAc, lot containing mixture of Forms A and B, read-out: Solubility), 3000 µg/mL; in series [1] (organic solvent or mixture, EtOH, lot containing mixture of Forms A and B, read-out: Solubility) it was 3000 µg/mL. Besides, the solubility is 11000 µg/mL in series [1] (organic solvent or mixture, MeOH, lot containing mixture of Forms A and B, read-out: Solubility); 29000 µg/mL in series [1] (organic solvent or mixture, THF, lot containing mixture of Forms A and B, read-out: Solubility); 8000 µg/mL in series [1] (organic solvent or mixture, acetone, lot containing mixture of Forms A and B, read-out: Solubility); less than 1000 µg/mL in series [1] (organic solvent or mixture, heptane, lot containing mixture of Forms A and B, read-out: Solubility); 1000 to 20000 µg/mL in series [1] (organic solvent or mixture, in acetone, ACN, DCM, EtOAc, EtOH, MeOH, 3:1 v/v acetone/H2O, and 1:1 v/v THF/H2O, read-out: Solubility term); less than 1000 µg/mL in series [1] (organic solvent or mixture, toluene, lot containing mixture of Forms A and B, read-out: Solubility). Also, in series [1] (water, H2O, lot containing mixture of Forms A and B, read-out: Solubility), the solubility was less than 1000 µg/mL. Also, the Solubility term entry in series [1] (in heptane, H2O, and toluene) is reported as “low solubility”.

With `Cn1c(Nc2ccc(I)cc2F)c(C(=O)NOCCO)c2cccnc21` [Form A], in series [2], the “Relative thermodynamic stability of anhydrous forms” value (“Relative thermodynamic stability” below) is recorded as “most thermodynamically stable form; also recorded: more stable relative to Form E or F”. Further, the Hygroscopicity term result in series [3] (5-95% RH) was “limited hygroscopicity”. The “post-DVS XRPD form” value in series [3] (solid after DVS cycle) is “Form A”. Also, the Physical stability entry in series [4] (setting [7]) and in series [4] (one (1) day at ambient temperature under vacuum) was “stable” each time.

For the compound `Cn1c(Nc2ccc(I)cc2F)c(C(=O)NOCCO)c2cccnc21` [Form B], the “Form conversion by in situ variable temperature XRPD (vtXRPD)” value in series [5] is given as “converts/crystallizes to anhydrous Form E”. For the same compound, the Physical stability result in series [4] (exposure to 45° C. (elevated temperature) under vacuum) is “disordered; also recorded: slightly disordered XRPD pattern with additional unidentified peaks”; in series [4] (under vacuum at ambient temperature over 2 days), “stable”.

Regarding `Cn1c(Nc2ccc(I)cc2F)c(C(=O)NOCCO)c2cccnc21` [Form C], in series [4] (about 42° C. for one day or about 45° C. for three days, under vacuum), the Physical stability result is on record as “slightly disordered”.

Take `Cn1c(Nc2ccc(I)cc2F)c(C(=O)NOCCO)c2cccnc21` [Form E]: the “Relative thermodynamic stability” value in series [2] is recorded as “more thermodynamically stable than Form F but less stable than Form A; also recorded: more stable relative to Form F”.

On to `Cn1c(Nc2ccc(I)cc2F)c(C(=O)NOCCO)c2cccnc21` [Form F], for which, in series [2], the “Relative thermodynamic stability” value is recorded as “least thermodynamically stable form”. Besides, the Physical stability entry in series [4] (setting [7]) and in series [4] (under vacuum at room temperature for 5 days) was “stable” throughout.

As to `Cn1c(Nc2ccc(I)cc2F)c(C(=O)NOCCO)c2cccnc21` [Form H], the Physical stability entry in series [4] (under vacuum, room temperature for 2 days, damp solids with excess MeOH) was “disordered mixture of Form H and Form A”.

Consider `O=C(NOC[C@H](O)CO)c1ccc(F)c(F)c1Nc1ccc(I)cc1F` [PD0325901], for which the Side effects entry in series [6] was “one or more neurological side effects associated with ataxia, confusion, and syncope; also recorded: neurological side effects associated with ataxia, confusion, and syncope”.
